Where two headings read alike, the source gives them in different places.
Columns and labels:
[1] = cited from earlier work; for Comments: stability: light, heat, acid, oxidation, SO2, ascorbic acid; for Comments: solubility: water / lipid solubility
[2] = β-carotene solubility in organic solvents; assay type: physicochemical; settings: organic solvent or mixture
[3] = color photographs, dispersed in water

Compound	Comments: stability ([1]; in presence of ascorbic acid)	Comments: solubility [1]	also measured
Cc1c(C(=O)O)c(O)cc2c1C(=O)c1c(O)c([C@@H]3O[C@H](CO)[C@@H](O)[C@H](O)[C@H]3O)c(O)c(O)c1C2=O [Carmine, carminic acid, carminic acid]	Fades in the presence of ascorbic acid or SO2	Water soluble	Comments: stability ([1]; to light, heat and acid): Good stability to light, heat, and acid
Capsanthin/capsorubin			Comments: stability [1]: Fair stability to light and heat
Chlorophyll		Liposoluble. Not allowed as a colorant in the U.S.	
CC1=C[C@H](O)CC(C)(C)[C@H]1/C=C/C(C)=C/C=C/C(C)=C/C=C/C=C(C)/C=C/C=C(C)/C=C/C1=C(C)C[C@@H](O)CC1(C)C [Lutein]	Fades in the presence of ascorbic acid.		Comments: stability ([1]; to light): Poor stability to light, heat, acid, oxidation, and SO2.
COc1cc(/C=C/C(=O)CC(=O)/C=C/c2ccc(O)c(OC)c2)ccc1O [Curcumin]		low water solubility	
CC1=C(/C=C/C(C)=C/C=C/C(C)=C/C=C/C=C(C)/C=C/C=C(C)/C=C/C2=C(C)CCCC2(C)C)C(C)(C)CCC1 [β-carotene]			solubility [2]: ≤ 20 mg/mL; color and distribution in water [3]: non-uniform color and distribution
